Experimental data published in the supplement of paper PMC10307832.

Experiments:
Assay in all cases: relative viability (nuclei count vs DMSO), 5 days (fraction); higher = more cells survive
KN-93 + Luminespib = compound: CN(C/C=C/C1=CC=C(C=C1)Cl)CC2=CC=CC=C2N(CCO)S(=O)(=O)C3=CC=C(C=C3)OC [KN-93] + CCNC(=O)c1noc(-c2cc(C(C)C)c(O)cc2O)c1-c1ccc(CN2CCOCC2)cc1 [Luminespib] (partner 0.01 µM)
Outline: (§1)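 Lung cancer cell lines, seeded in 1536-well plates, were treated the following day by pin tool with a single drug or with five library-drug doses (not always all listed) in √10 steps on top of a fixed anchor-drug dose. Cells were fixed and nuclei stained in one step after 5 days, and nuclei were counted. Relative viability is the nuclei count for treated wells divided by that for vehicle wells, reported as medians of duplicate plates.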

KN-93 + Olaparib = compound: CN(C/C=C/C1=CC=C(C=C1)Cl)CC2=CC=CC=C2N(CCO)S(=O)(=O)C3=CC=C(C=C3)OC [KN-93] + O=C(c1cc(Cc2n[nH]c(=O)c3ccccc23)ccc1F)N1CCN(C(=O)C2CC2)CC1 [Olaparib] (partner 8 µM)
Outline: as §1

KN-93 + Linsitinib = compound: CN(C/C=C/C1=CC=C(C=C1)Cl)CC2=CC=CC=C2N(CCO)S(=O)(=O)C3=CC=C(C=C3)OC [KN-93] + C[C@]1(O)C[C@@H](c2nc(-c3ccc4ccc(-c5ccccc5)nc4c3)c3c(N)nccn32)C1 [Linsitinib] (partner 1 µM)
Outline: as §1

KN-93 + AZD7762 = compound: CN(C/C=C/C1=CC=C(C=C1)Cl)CC2=CC=CC=C2N(CCO)S(=O)(=O)C3=CC=C(C=C3)OC [KN-93] + NC(=O)Nc1cc(-c2cccc(F)c2)sc1C(=O)N[C@H]1CCCNC1 [AZD7762] (partner 0.2 µM)
Outline: as §1

KN-93 + Palbociclib = compound: CN(C/C=C/C1=CC=C(C=C1)Cl)CC2=CC=CC=C2N(CCO)S(=O)(=O)C3=CC=C(C=C3)OC [KN-93] + CC(=O)c1c(C)c2cnc(Nc3ccc(N4CCNCC4)cn3)nc2n(C2CCCC2)c1=O [Palbociclib] (partner 0.5 µM)
Outline: as §1

Row | Cell Line | relative viability (KN-93 + Luminespib; first compound 0.08 µM) | relative viability (KN-93 + Luminespib; first compound 0.253 µM) | relative viability (KN-93 + Luminespib; first compound 2.53 µM) | relative viability (KN-93 + Luminespib; first compound 8 µM) | relative viability (KN-93 + Olaparib; first compound 0.08 µM) | relative viability (KN-93 + Olaparib; first compound 0.253 µM) | relative viability (KN-93 + Olaparib; first compound 2.53 µM) | relative viability (KN-93 + Olaparib; first compound 8 µM) | relative viability (KN-93 + Linsitinib; first compound 0.08 µM) | relative viability (KN-93 + Linsitinib; first compound 0.253 µM) | relative viability (KN-93 + Linsitinib; first compound 2.53 µM) | relative viability (KN-93 + Linsitinib; first compound 8 µM) | relative viability (KN-93 + AZD7762; first compound 0.08 µM) | relative viability (KN-93 + AZD7762; first compound 0.253 µM) | relative viability (KN-93 + AZD7762; first compound 2.53 µM) | relative viability (KN-93 + AZD7762; first compound 8 µM) | relative viability (KN-93 + Palbociclib; first compound 0.08 µM) | relative viability (KN-93 + Palbociclib; first compound 0.253 µM) | relative viability (KN-93 + Palbociclib; first compound 2.53 µM) | relative viability (KN-93 + Palbociclib; first compound 8 µM)
1 | 201T | 1.04 | 1.16 | 0.958 | 0.697 | 0.847 | 0.857 | 0.904 | 0.706 | 1.04 | 0.968 | 0.995 | 0.837 | 0.616 | 0.707 | 0.658 | 0.619 | 0.359 | 0.376 | 0.367 | 0.306
2 | A-427 | 1.16 | 1.2 | 0.866 | 0.307 | 0.783 | 0.559 | 0.765 | 0.51 | 1.1 | 1.2 | 1.13 | 0.965 | 0.657 | 0.771 | 1.03 | 0.548 | 0.555 | 0.533 | 0.511 | 0.41
3 | ABC-1 | 0.701 | 0.752 | 0.368 | 0.271 | 0.785 | 0.687 | 0.978 | 0.339 | 0.889 | 0.717 | 0.727 | 0.362 | 0.924 | 1.05 | 0.869 | 0.38 | 0.691 | 0.64 | 0.571 | 0.336
4 | BEN | 0.322 | 0.331 | 0.619 | 0.214 | 1.13 | 1.19 | 1.06 | 0.713 | – | 1.31 | 1.03 | 0.786 | 0.771 | 0.661 | 0.678 | 0.442 | 0.482 | 0.448 | 0.523 | 0.465
5 | CAL-12T | 0.208 | 0.27 | 0.573 | 0.336 | 0.772 | 0.777 | 0.788 | 0.641 | 0.926 | 0.766 | 0.694 | 0.729 | 0.56 | 0.628 | 0.667 | 0.399 | 0.37 | 0.52 | 0.232 | 0.3
6 | COR-L23 | 0.604 | 1 | 0.978 | 0.424 | 0.298 | 0.338 | 0.357 | 0.327 | 0.683 | 1.07 | 0.887 | 0.577 | – | – | – | – | 0.272 | 0.289 | 0.303 | 0.24
7 | COR-L 105 | 0.765 | 0.869 | 0.675 | 0.739 | 0.722 | 0.499 | 0.545 | 0.661 | 0.811 | 0.878 | 1.15 | 0.784 | – | – | – | – | 0.456 | 0.412 | 0.391 | 0.333
8 | ChaGo-K-1 | 0.589 | 0.712 | 0.699 | 0.462 | 0.388 | 0.402 | 0.442 | 0.38 | – | – | – | – | 0.797 | 0.928 | 0.934 | 0.713 | 0.899 | 1.02 | 0.946 | 0.829
9 | EKVX | 0.998 | 0.977 | 0.895 | 0.714 | 0.761 | 0.558 | 0.802 | 0.669 | 0.959 | 0.872 | 1.03 | 0.748 | 0.623 | 0.515 | 0.73 | 0.354 | 0.433 | 0.34 | 0.365 | 0.265
10 | EMC-BAC-2 | 1.07 | 1.27 | 1.18 | 0.901 | 0.498 | 0.441 | 0.507 | 0.431 | 0.821 | 1 | 0.878 | 0.775 | 1.22 | 1.28 | 1.2 | 0.872 | 0.564 | 0.53 | 0.537 | 0.46
11 | EPLC-272H | 0.438 | 0.183 | 0.266 | 0.173 | 0.466 | 0.681 | 0.913 | 0.267 | 1.15 | 1.27 | 1.21 | 0.871 | 0.195 | 0.2 | 0.527 | 0.347 | 0.321 | 0.279 | 0.354 | 0.346
12 | H3255 | 0.85 | 0.97 | 0.774 | 0.776 | 0.519 | 0.621 | 0.523 | 0.485 | 0.802 | 1.09 | 1.08 | 0.584 | 0.878 | 0.894 | 0.989 | 0.558 | 0.322 | 0.303 | 0.3 | 0.266
13 | HARA | 0.659 | 1.15 | 0.449 | 0.284 | 0.524 | 0.584 | 0.718 | 0.336 | 0.84 | 1.11 | 0.923 | 0.527 | 0.303 | 0.392 | 0.193 | 0.271 | 0.29 | 0.261 | 0.229 | 0.195
14 | HCC-15 | 0.297 | 0.319 | 0.504 | 0.279 | 0.658 | 0.731 | 0.719 | 0.522 | 0.85 | 1 | 0.802 | 0.728 | 1.18 | 1.24 | 1.38 | 1 | 0.671 | 0.82 | 0.735 | 0.513
15 | HCC-44 | 1.28 | 1.01 | 1.12 | 0.752 | 0.935 | 0.959 | 0.994 | 0.88 | 0.616 | 0.613 | 0.667 | 0.462 | 1.02 | 0.904 | 1.04 | 0.944 | 1.04 | 0.878 | 0.979 | 0.79
16 | HCC-78 | – | – | – | – | 0.725 | 0.976 | 0.807 | 0.726 | 0.489 | 0.507 | 0.549 | 0.374 | 0.623 | 0.506 | 0.622 | 0.653 | 0.47 | 0.513 | 0.446 | 0.427
